Experiments:
Format in all cases: biochemical
Details in all cases: HTRF method
Ret wt = Ret wt (Homo sapiens (Human), UniProt P07949); assay: HTRF kinase inhibition assay, Ret wt
Description: (§1) • 1. […] 1) • 18) Echo (Labcyte, 550) • 3.
(§2) [formula] • Ratiopositive control: average of CEP-32496 readings in all positive control wells • Rationegative control: average of DMSO readings in all negative control wells • Wherein, the chemical name of CEP-32496 is: N-[3-[(6,7-dimethoxy-4-quinazolinyl)oxy]phenyl]-N′-[5-(2,2,2-trifluoro-1,1-dimethylethyl)-3-isoxazolyl]urea. • 4.3 Calculation of the IC50 and Drawing of the inhibition curve of the compound: • The IC50 (half inhibitory concentration) of the compound was obtained using the following non-linear fitting formula: Data analysis was performed using Graphpad 6.0 software. Y=Bottom+(Top−Bottom)/(1+10^((Log IC50−X)*Hill Slope)) • X: compound concentration log value Y: inhibition, % • 5.

CCDC6-RET = CCDC6-RET (Homo sapiens (Human), UniProt P07949+Q16204); assay: HTRF kinase inhibition assay, CCDC6-RET
Description: as §1, §2

Ret V804L = Ret V804L (Homo sapiens (Human), UniProt P07949, V804L); assay: HTRF kinase inhibition assay, Ret V804L
Description: as §1, §2

Ret M918T = Ret M918T (Homo sapiens (Human), UniProt P07949, M918T); assay: HTRF kinase inhibition assay, Ret M918T
Description: as §1, §2

Ret V804M = Ret V804M (Homo sapiens (Human), UniProt P07949, V804M); assay: HTRF kinase inhibition assay, Ret V804M
Description: as §1, §2

Chain of Ret V804M (P07949 29-1114 V804M): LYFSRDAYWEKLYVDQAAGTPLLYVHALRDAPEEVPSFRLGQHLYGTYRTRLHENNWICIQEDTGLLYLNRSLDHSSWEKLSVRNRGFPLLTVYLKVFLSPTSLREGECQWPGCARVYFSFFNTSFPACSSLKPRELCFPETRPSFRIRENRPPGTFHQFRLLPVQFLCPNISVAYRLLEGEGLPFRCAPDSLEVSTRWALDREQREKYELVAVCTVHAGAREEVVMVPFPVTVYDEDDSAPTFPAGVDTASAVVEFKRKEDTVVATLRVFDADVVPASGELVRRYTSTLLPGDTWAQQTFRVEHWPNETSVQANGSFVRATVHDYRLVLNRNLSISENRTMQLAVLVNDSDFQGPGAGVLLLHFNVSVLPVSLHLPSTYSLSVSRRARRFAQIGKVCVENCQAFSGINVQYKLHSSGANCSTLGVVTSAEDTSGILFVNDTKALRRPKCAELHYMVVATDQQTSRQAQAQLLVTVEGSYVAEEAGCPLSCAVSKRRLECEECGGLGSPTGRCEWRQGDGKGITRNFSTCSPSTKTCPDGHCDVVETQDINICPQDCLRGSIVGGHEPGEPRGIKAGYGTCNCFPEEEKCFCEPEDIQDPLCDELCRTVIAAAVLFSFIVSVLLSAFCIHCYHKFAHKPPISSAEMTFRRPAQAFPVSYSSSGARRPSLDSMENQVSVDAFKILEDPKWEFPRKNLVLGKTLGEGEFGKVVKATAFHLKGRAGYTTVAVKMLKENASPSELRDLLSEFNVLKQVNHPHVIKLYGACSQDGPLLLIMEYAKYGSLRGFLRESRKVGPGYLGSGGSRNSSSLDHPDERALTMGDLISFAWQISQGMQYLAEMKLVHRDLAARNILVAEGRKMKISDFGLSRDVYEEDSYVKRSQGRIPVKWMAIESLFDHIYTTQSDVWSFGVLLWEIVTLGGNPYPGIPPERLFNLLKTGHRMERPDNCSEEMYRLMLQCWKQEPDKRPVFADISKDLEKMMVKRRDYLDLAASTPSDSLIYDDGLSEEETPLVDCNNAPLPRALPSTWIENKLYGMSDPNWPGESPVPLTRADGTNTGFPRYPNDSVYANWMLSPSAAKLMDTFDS
Chain of CCDC6-RET (P07949 other isoform, or with tags, fused parts or gaps): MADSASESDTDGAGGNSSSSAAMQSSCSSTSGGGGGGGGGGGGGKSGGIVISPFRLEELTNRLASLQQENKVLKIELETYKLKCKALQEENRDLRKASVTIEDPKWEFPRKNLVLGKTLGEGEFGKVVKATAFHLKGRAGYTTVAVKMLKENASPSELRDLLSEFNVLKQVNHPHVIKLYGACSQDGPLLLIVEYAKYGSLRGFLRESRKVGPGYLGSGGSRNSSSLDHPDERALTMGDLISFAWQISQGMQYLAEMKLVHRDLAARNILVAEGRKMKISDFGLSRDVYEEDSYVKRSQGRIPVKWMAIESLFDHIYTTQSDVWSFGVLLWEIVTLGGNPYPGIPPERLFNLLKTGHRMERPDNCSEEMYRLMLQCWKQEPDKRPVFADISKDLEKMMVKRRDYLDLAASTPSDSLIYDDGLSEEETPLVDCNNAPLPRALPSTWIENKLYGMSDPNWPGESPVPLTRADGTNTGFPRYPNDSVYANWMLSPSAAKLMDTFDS
Chain of Ret wt (P07949 29-1114): as the sequence (P07949 29-1114 V804M) above, with M776V counted along it
Chain of Ret M918T (P07949 29-1114 M918T): as the sequence (P07949 29-1114 V804M) above, with M776V, M890T counted along it
Chain of Ret V804L (P07949 29-1114 V804L): as the sequence (P07949 29-1114 V804M) above, with M776L counted along it

Compound	IC50 (Ret wt) [nM]	IC50 (CCDC6-RET) [nM]	IC50 (Ret V804L) [nM]	IC50 (Ret M918T) [nM]	IC50 (Ret V804M) [nM]
COc1cncc(C#CCN2C3CC2CN(c2ccc(-c4cc(-c5cnn(C)c5)cn5ncc(C#N)c45)cn2)C3)c1 [Example 215, 4-(6-(6-(3-(5-methoxypyridin-3-yl)prop-2-yn-1-yl)-3,6-diazabicyclo[3.1.1]heptane-3-yl)pyridin-3-yl)-6-(1-methyl-1H-pyrazol-4-yl)pyrazolo[1,5-a]pyridin-3-carbonitrile]	0.16	0.16	0.06	0.183	0.42
COc1ccc(C#CCN2C3CC2CN(c2ccc(-c4cc(-c5cnn(C)c5)cn5ncc(C#N)c45)cn2)C3)cn1 [Example 194, 4-(6-(6-(3-(6-methoxypyridin-3-yl)prop-2-yn-1-yl)-3,6-diazabicyclo[3.1.1]heptane-3-yl)pyridin-3-yl)-6-(1-methyl-1H-pyrazol-4-yl)pyrazolo[1,5-a]pyridin-3-carbonitrile]	0.68	0.26	0.23	0.62	7.07
C#Cc1cc(F)c(CN2C3CC2CN(c2ccc(-c4cc(-c5cnn(C)c5)cn5ncc(C#N)c45)cn2)C3)c(F)c1 [Example 222, 4-(6-(6-(4-ethynyl-2,6-difluorobenzyl)-3,6-diazabicyclo[3.1.1]heptan-3-yl)pyridin-3-yl)-6-(1-methyl-1H-pyrazol-4-yl)pyrazolo[1,5-a]pyridine-3-carbonitrile]	0.43				4.35
C#Cc1ccc(C(=O)N2C3CC2CN(c2ccc(-c4cc(-c5cnn(C)c5)cn5ncc(C#N)c45)cn2)C3)nc1 [Example 238, 4-(6-(6-(5-ethynylpicolinoyl)-3,6-diazabicyclo[3.1.1]heptan-3-yl)pyridin-3-yl)-6-(1-methyl-1H-pyrazol-4-yl)pyrazolo[1,5-a]pyridine-3-carbonitrile]	0.3				2.75
COc1ccnc(C#CCN2CCN(c3ccc(-c4cc(-c5cnn(C)c5)cn5ncc(C#N)c45)cn3)CC2)c1 [Example 252, 4-(6-(4-(3-(4-methoxypyridin-2-yl)propan-2-ynyl-1-yl)piperazin-1-yl)pyridin-3-yl)-6-(1-methyl-1H-pyrazolin-4-yl)pyrazole[1,5-a]pyridine-3-carbonitrile]	0.25				3.21
C#Cc1ccc(OC2CN(c3ccc(-c4cc(-c5cnn(C(F)F)c5)cn5ncc(C#N)c45)cn3)C2)cc1 [Example 285, 6-(1-(difluoromethyl)-1H-pyrazol-4-yl)-4-(6-(3-(4-ethynylphenoxy)azetidin-1-yl)pyridin-3-yl)pyrazolo[1,5-a]pyridine-3-carbonitrile]	0.56				0.71

Next, values leading:

IC50 (Ret wt) [nM]	IC50 (CCDC6-RET) [nM]	IC50 (Ret V804L) [nM]	IC50 (Ret M918T) [nM]	IC50 (Ret V804M) [nM]	Compound
0.61	0.87	0.95	0.97	5.53	Cn1cc(-c2cc(-c3ccc(N4CCN(C(=O)C#Cc5ccccc5)CC4)nc3)c3c(C#N)cnn3c2)cn1 [Example 1, 3-cyano-6-(1-methyl-1H-pyrazol-4-yl)-4-(6-(4-(3-phenylpropioloyl)piperazin-1-yl)pyridine-3-yl)pyrazolo[1,5-a]pyridine]
0.27	0.8	0.3	0.7	16.6	C#Cc1ccc(C(=O)N2CCN(c3ccc(-c4cc(-c5cnn(C)c5)cn5ncc(C#N)c45)cn3)CC2)cc1 [Example 3, 3-cyano-4-(6-(4-(4-ethynylbenzoyl)piperazin-1-yl)pyridin-3-yl)-6-(1-methyl-1H-pyrazol-4-yl)pyrazolo[1,5-a]pyridine]
0.27	0.6	0.2	2.8	2.3	C#Cc1cccc(C(=O)NC2(C)CCN(c3ccc(-c4cc(-c5cnn(C)c5)cn5ncc(C#N)c45)cn3)CC2)c1 [Example 4, N-(1-(5-(3-cyano-6-(1-methyl-1H-pyrazol-4-yl)pyrazolo[1,5-a]pyridin-4-yl)pyridin-2-yl)-4-methylpiperidin-4-yl)-3-ethynylbenzamide]
0.57				21	C#Cc1cccc(CN2CCN(c3ccc(-c4cc(-c5cnn(C)c5)cn5ncc(C#N)c45)cn3)CC2)c1F [Example 224, 4-(6-(4-(3-ethynyl-2-fluorobenzyl)piperazin-1-yl)pyridin-3-yl)-6-(1-methyl-1H-pyrazol-4-yl)pyrazolo[1,5-a]pyridine-3-carbonitrile]
0.62				12.3	C#Cc1cc(C(=O)N2CCN(c3ccc(-c4cc(-c5cnn(C)c5)cn5ncc(C#N)c45)cn3)CC2)ccc1F [Example 239, 4-(6-(4-(3-ethynyl-4-fluorobenzoyl)piperazin-1-yl)pyridin-3-yl)-6-(1-methyl-1H-pyrazol-4-yl)pyrazolo[1,5-a]pyridine-3-carbonitrile]
0.58				8.22	C#CC#CCN1CCN(c2ccc(-c3cc(-c4cnn(C)c4)cn4ncc(C#N)c34)cn2)CC1 [Example 275, 6-(1-methyl-1H-pyrazol-4-yl)-4-(6-(4-(penta-2,4-diyn-1-yl)piperazin-1-yl)pyridine-3-yl)pyrazolo[1,5-a]pyridine-3-carbonitrile]
3.51				37.8	COc1cc(C#CCN2CCN(c3ccc(-c4cc(-c5cnn(C)c5)cn5ncc(C#N)c45)cn3)CC2)ccn1 [Example 243, 4-(6-(4-(3-(2-methoxypyridin-4-yl)prop-2-yn-1-yl)piperazin-1-yl)pyridin-3-yl)-6-(1-methyl-1H-pyrazol-4-yl)pyrazolo[1,5-a]pyridine-3-carbonitrile]

From US12209085B2, “RET inhibitors, pharmaceutical compositions and uses thereof” (SUNSHINE LAKE PHARMA CO., LTD., priority 2018, dated 2025)
